Source: a melting point compilation (Tetko et al.)

Row | Compound | melting point [°C]
1 | CCCCCCCCCCCCCCCCCC(=O)OCCCCC | 30
2 | S=C1NCCN1 | 203
3 | Clc1ccc2c(c1)C(c1ccccc1)=NCc1nncn1-2 | 228
4 | CC(C)(C)C(=O)C1C(=O)c2ccccc2C1=O | 109
5 | COc1ccc(F)c(F)c1C#N | 81
6 | O=[N+]([O-])c1cccc(OCCCCBr)c1 | 62 to 63
7 | OC(c1ccc(Cl)cc1)(c1cncnc1)c1ccccc1Cl (stereo unspecified) | 118
8 | CCOC(=O)c1cc(C)n(CO)n1 | 71
9 | C=CCNC(=S)NN | 93 to 96
10 | Cc1c([N+](=O)[O-])cc(C(=O)O)cc1[N+](=O)[O-] | 155 to 159
11 | Cc1cc(Br)cc(C)c1N=C=O | 61
12 | CCCC(NC(=O)C(C)N)C(=O)O (mixture of isomers) | 240 to 242
13 | O=C1CCCCO1 | -13
14 | N#CC12CC3CC(CC(C3)C1)C2 | 195
15 | Brc1ccc(Oc2c(Br)cc(Br)cc2Br)c(Br)c1 | 97 to 98
16 | CC(=O)NCC1CN(c2ccc(N3CCOCC3)c(F)c2)C(=O)O1 (stereo unspecified) | 182
17 | OOC1CCCCC1 | -20
18 | Fc1cc(Br)c(Cl)c(Br)c1 | 86
19 | CCC(Cl)CC | -105
20 | C=CCSc1nc(=O)[nH]c2c1CCCC2 | 207 to 209
21 | CC(C)C12CCC(C)(CC1)O2 | 1
22 | CCN(CC)CCC#N | -64
23 | CCCCNC(=O)NCC(=O)O | 140

Row | Compound | melting point [°C]
24 | C=CC/C=C/C | -139
25 | COC1(OC)CC[C@]2(C)[C@H]3CC[C@]4(C)CCC[C@@]4(O)[C@@H]3CC[C@@]2(C)C1 | 146 to 147
26 | NC(=O)c1cc(Br)cc(Br)c1 | 182
27 | CCOc1ccc([C@]2(C(=O)N3CCC[C@H](C)[C@@H]3C)CC2(Cl)Cl)cc1 | 160
28 | CC1C(=O)C2(C)CCC1C2(C)C (stereo unspecified) | 38
29 | COC(=O)CC[C@@H](C)[C@H]1CC[C@H]2[C@@H]3C(=O)C[C@@H]4CCCC[C@]4(C)[C@H]3CC[C@]12C | 92.9
30 | CC12CCC(O)(CC1)CC2=O | 55 to 56
31 | O=C(O)c1cc(F)nc(F)c1F | 125 to 127
32 | O=C(O)CCCc1ccc(F)cc1 | 45 to 47
33 | O[C@@H]1C#CCCCCC#C[C@@H](O)CC1 | 154
34 | O=C(O)C=C(F)C(F)(F)C(F)(F)C(F)(F)C(F)(F)C(F)(F)C(F)(F)C(F)(F)F | 105
35 | Nc1c(Br)cc(C(F)(F)F)cc1Br | 38
36 | O=C(O)c1cc(I)c(O)c(I)c1 | 237
37 | CCCCC=CC=CC=CCCCCCCCC(=O)O | 71.5
38 | O=C(CBr)c1ccsc1 | 61 to 62
39 | C/C(=N/NC(N)=O)C1=CC2(C)CCC1C2(C)C (stereo unspecified) | 218
40 | Cc1ccccc1-n1c(C)nc2ccccc2c1=O | 120
41 | OOC1CCCc2ccccc21 (stereo unspecified) | 56
42 | O=C(Cl)c1cccc(C(Cl)Cl)c1 | 57 to 63
43 | CCCCCCCCOc1ccc(C(C)=O)cc1 | 30 to 32
44 | CC(C)COC(=O)c1ccc(O)cc1 | 76
45 | FC(F)=C(F)F | -142
46 | CCCCCCCCCCCCCCCCC1CCCCC1 | 33.6

Row | Compound | melting point [°C]
47 | CN1CCN(c2ccccc2N)CC1 | 101 to 102
48 | NC(=O)C=CC(N)=O | 276
49 | CC1C2CCCC(C2=NNC(N)=S)C2(O)CCCCC12 (stereo unspecified) | 195
50 | COc1ccc2c(c1OC)CN(C)CCc1cc3c(cc1C(=O)C2)OCO3 | 160
51 | Oc1cccc(N2CCNCC2)c1 | 207
52 | CCC1(C2=CC3CCC(C2)C3)C(=O)NC(=O)NC1=O (stereo unspecified) | 213
53 | CCOC(=O)c1c(SC)nn(C(N)=S)c1N | 149
54 | O=[N+]([O-])c1ccc(S(=O)(=O)F)cc1 | 76 to 80
55 | CC1(C)CC(=O)C(=NNc2ccc(Br)cc2)C(=O)C1 | 204
56 | O=C1OC(CO)C(O)C1O (stereo unspecified) | 83 to 85
57 | CCCn1c(C(=O)O)cc2c(=O)n(C)c(=O)n(C)c21 | 139
58 | Cc1c(C(N)=O)cc([N+](=O)[O-])cc1[N+](=O)[O-] | 177
59 | CNc1nc(NC(C)C)nc(SC)n1 | 85
60 | CC1(C)CC(=O)C2=C(C1)OC1CCCCC21 (stereo unspecified) | 63 to 66
61 | CC(C)c1ccc(C=C[N+](=O)[O-])cc1 | 35 to 38
62 | CCOC(=O)NNC(=O)NC1CCCCC1 | 115 to 117
63 | CCOC(=O)C(Br)=NNc1ccc([N+](=O)[O-])cc1 | 199 to 200
64 | O=[N+]([O-])c1ccc2ccc3cccc4ccc1c2c34 | 155
65 | O=C(O)c1cc(O)c(Br)c(O)c1 | 270
66 | CC(C)(C)OC(=O)NC(C)(C)C(=O)O | 117 to 121
67 | CCCCCSc1nnc[nH]1 | 47 to 48

Next, values leading:

Row | melting point [°C] | Compound
68 | 73 to 75 | COc1ccc(Oc2ccc(C(F)(F)F)cc2N)cc1
69 | 163 | COc1cc(/C=C\C(=O)NCCc2ccc(OCc3ccccc3)c(OC)c2)ccc1OCc1ccccc1
70 | 60 | CC(=O)Oc1cc(-c2ccccc2)cc2ccccc12
71 | 222 to 223 | Nc1nnc(-c2ccccc2)c(Nc2ccc(Cl)cc2Cl)n1
72 | 200 | O=[N+]([O-])c1cccc(-c2nnc3n2NCS3)c1
73 | 320 to 322 | O=c1[nH]c(=S)[nH]c2ccccc12
74 | 69 to 70 | COc1ccc(C=CC(=O)c2ccccc2)c(OC)c1
75 | 48 to 49 | ClCc1cc(-c2ccccc2)on1
76 | 102 | CON(C)C(=O)Nc1ccc(Oc2ccc3c(c2)OC(C)(OC)CC3(C)C)cc1 (stereo unspecified)
77 | 43 | O=S(=O)(Cl)c1cc(Cl)ccc1F
78 | 300 | Cn1c(=O)c(C2=NNC(=O)C2=NNc2ccc([N+](=O)[O-])cc2)c(O)c2ccccc21
79 | 148 | O=C(O)CCC(=O)Nc1ccccc1
80 | 228 to 234 | Nc1c(C=O)ccc2c1C(=O)c1ccccc1C2=O
81 | 215 | NC(=O)c1ccc(Cl)nc1
82 | 79 to 79.6 | CC(=O)/C=C1\Cc2ccccc21
83 | 80 to 82 | COc1ccc(-n2ncc(C=O)c2C)cc1
84 | 222 | COc1ccc(-c2csc(/C(C#N)=C/c3ccccc3Cl)n2)cc1
85 | 200 to 201 | CCC(/C(=N/Nc1ccc([N+](=O)[O-])cc1[N+](=O)[O-])c1ccc(OC)cc1)C1CCCCC1 (stereo unspecified)
86 | 123 | CN(C)c1nnc(Br)c(-c2nc(N(C)C)nnc2Br)n1
87 | 147 | Clc1ccccc1C(c1ccccc1)(c1ccccc1)n1ccnc1
88 | 193 | O=[N+]([O-])c1ccc(/C=C\c2ccccc2C=NNc2ccccc2)c([N+](=O)[O-])c1
89 | 126 to 127 | Cc1cc(C)c(CC(=NOCc2ccccc2)c2cc3cc(Br)ccc3o2)c(C)c1

Row | melting point [°C] | Compound
90 | 147 to 148 | Cc1cc(C)c(C2(C)CC(C(=O)c3cc4ccccc4o3)C2)c(C)c1 (stereo unspecified)
91 | 174 | Oc1ccc(Cl)cc1Sc1cc(Cl)ccc1O
92 | 245 to 247 | Cc1nc2ccc(Br)cn2c(=O)c1C(=O)c1ccccc1
93 | 183 to 185 | CCOC(=O)c1sc2ncccc2c1N
94 | 266 | COc1ccccc1C=C1C(=O)NN=C1c1c(O)c2ccccc2n(C)c1=O
95 | 37 to 38 | NCc1csc2ccc(Br)cc12
96 | 45 | C#Cc1ccc(Cl)cc1
97 | 226 | COc1cc(C2Nn3c(nnc3-c3ccc([N+](=O)[O-])cc3)S2)ccc1O (stereo unspecified)
98 | 180 to 181 | O=C(O)c1cccc(-n2cccc2)c1
99 | 167 | COC1=CC(=O)C(C#N)C(c2ccccc2)C1 (stereo unspecified)
100 | 150 to 153 | N#Cc1ccc(O)c(Cl)c1
101 | 197 | Oc1nc(C2CCCCC2)nn1-c1ccccc1
102 | 205 to 206 | Sc1nnc(-c2cc(Cl)nc(Cl)c2)o1
103 | 173 to 174 | O=S(=O)(Cl)c1sc(-c2ccccc2)nc1-c1ccccc1
104 | 130 to 133 | O=C1N[C@@H](c2ccccc2)CO1
105 | 221 to 222 | Cc1n[nH]c(C)c1-c1ccc(-c2ccccc2)cc1
106 | 196 to 198 | Clc1ccc(C2Nn3c(nnc3-c3ccccc3)S2)cc1 (stereo unspecified)
107 | 114 | CSc1nc(Cl)c(-c2ccccc2)c(Cl)n1
108 | 150 to 152 | NNc1ncnc2scc(-c3ccccc3)c12
109 | 45 | CCCCCCCOc1ccc(N)cc1
110 | 153 | COc1ccc(NC(=O)c2ccccc2)cc1
111 | 148 | CC(=O)NC(=O)c1ccccc1O

Row | melting point [°C] | Compound
112 | 67 to 73 | COC(=O)[C@H](CSCc1ccccc1)NC(C)=O
113 | 190 to 192 | Fc1ccc(-c2cc3ccccc3[nH]2)cc1
114 | 196 | N#C/C(=N\Nc1cccc(F)c1)c1nc2ccccc2s1
115 | 135 to 137 | O=C(Cl)c1cc(-c2ccc(Cl)cc2)oc1C(F)(F)F
116 | 56 | CC(CCC(=O)O)Cc1ccccc1 (stereo unspecified)
117 | 214 to 215 | COc1cc(C=C2SC(=S)N(CNc3cccc([N+](=O)[O-])c3)C2=O)ccc1O
118 | 39 to 40 | Cc1onc(-c2ccccc2)c1N=C=O
119 | 180 | Cc1nnc(-c2ccccc2)c2noc(C)c12
120 | 130 to 136 | O=C(N[C@H]1CCCC[C@H]1C(=O)O)OCc1ccccc1 (relative stereo)
121 | 47 | COc1cc(Cl)ccc1CO
122 | 221 | Cc1c(C)c(C)c2c(=O)n3ccccc3cc2c1C
123 | -31 | C=Cc1ccccc1
124 | -30 | CC(=O)Oc1ccccc1
125 | 188 to 190 | CSC(S)=Nc1ccc(N)cc1
126 | 148 | O=C(/C=C/c1ccc(-c2ccc(Cl)cc2)o1)c1ccco1
127 | 73 to 77 | c1ccc(Oc2ccc(Oc3ccccc3)cc2)cc1
128 | 0 | O=COCC=Cc1ccccc1
129 | 184 to 186 | Clc1nc(Cl)c2nc[nH]c2n1
130 | 110 to 112 | O=c1c(Cl)c(Cl)cnn1Cc1ccccc1F
131 | 153 to 154 | Cc1ccc(-c2cc(N)[nH]n2)cc1
